We go through two molecules from patent US20200085831A1, “NASAL COMPOSITIONS STIMULATING CILIARY ACTIVITY” (Innotesto BVBA, priority 2013, published 2020).

For data set [1] the following is noted: adult population, Nawrot et al. 2003, cited from earlier work.
In data set [2] the test system is ciliated cells. Put plainly: In vitro experiments with ciliated cells (ascorbic acid). It counts as cell-based. The settings on record: several in vitro experiments. The procedure:
When ascorbic acid is added to the present disclosure composition, the pH of the final composition should be adapted to values between about 6-8 and preferably between about pH 7-7.5 by adding a small amount of sodium bicarbonate or other pH regulating agents.

For the molecule `Cn1c(=O)c2c(ncn2C)n(C)c1=O` [Caffeine, 1,3,7-trimethylxanthine], in data set [1], the “daily intake not associated with adverse effects” value is given as less than 400 mg per day. Also, in data set [1] (equivalent of the mg per day level), the “daily intake not associated with adverse effects, per bodyweight” value is reported as “about 6 mg/kg bodyweight”.
With `O=C1O[C@H]([C@@H](O)CO)C(O)=C1O` [ascorbic acid], the “effect on the ciliary beat frequency” value in data set [2] is recorded as “increases the ciliary beat frequency”.
